Holding throughout (design): species or system guinea pig
The target of assay [1] is T1, original gpBLT1 dN15/Ser309Ala (Cavia porcellus, UniProt H0VYV8, S309A). Briefly: competitive ligand binding.
The target of assay [2] is T2, gpBLT1 His83Gly^2.67/Lys88Gly^3.21 (Cavia porcellus, UniProt H0VYV8, H83G/K88G/S309A). In words: saturation binding of LTB4, membrane fraction.
Assay [3] concerns the target purified gpBLT1 His83Gly^2.67/Lys88Gly^3.21 (Cavia porcellus, UniProt H0VYV8, H83G/K88G/S309A). Briefly: competitive ligand binding to purified receptor.
The target in assay [4] is T2, gpBLT1 His83Gly^2.67/Lys88Gly^3.21. Briefly: competitive ligand binding.
The target in assay [5] is T1, original gpBLT1 dN15/Ser309Ala. In words: saturation binding of LTB4, membrane fraction.

T2 sequence (H0VYV8 1-348 H83G/K88G/S309A): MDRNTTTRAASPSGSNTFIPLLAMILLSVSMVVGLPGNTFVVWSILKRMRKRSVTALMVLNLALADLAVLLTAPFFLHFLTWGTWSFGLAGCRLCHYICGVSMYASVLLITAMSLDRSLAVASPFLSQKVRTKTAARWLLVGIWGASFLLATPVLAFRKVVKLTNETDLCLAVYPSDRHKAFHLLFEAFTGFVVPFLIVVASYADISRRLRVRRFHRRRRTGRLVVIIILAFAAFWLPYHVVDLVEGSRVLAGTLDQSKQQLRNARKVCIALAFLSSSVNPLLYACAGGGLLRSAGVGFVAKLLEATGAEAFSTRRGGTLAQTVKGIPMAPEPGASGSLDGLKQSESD
T1 sequence (H0VYV8 16-348 S309A): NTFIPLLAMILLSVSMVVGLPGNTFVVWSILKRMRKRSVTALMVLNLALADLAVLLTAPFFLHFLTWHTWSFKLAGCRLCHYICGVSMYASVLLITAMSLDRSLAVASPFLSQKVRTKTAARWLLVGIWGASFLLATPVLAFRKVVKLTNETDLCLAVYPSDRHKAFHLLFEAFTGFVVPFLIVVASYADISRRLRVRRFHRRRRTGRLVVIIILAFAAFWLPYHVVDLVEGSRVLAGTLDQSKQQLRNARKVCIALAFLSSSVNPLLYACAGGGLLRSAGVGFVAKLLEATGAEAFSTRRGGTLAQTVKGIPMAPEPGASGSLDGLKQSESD
Sequence of purified gpBLT1 His83Gly^2.67/Lys88Gly^3.21 (H0VYV8 1-348 H83G/K88G/S309A): as the sequence (H0VYV8 1-348 H83G/K88G/S309A) above

Consider `CCCCC/C=C\C[C@@H](O)/C=C/C=C/C=C\[C@@H](O)CCCC(=O)O` [LTB4, leukotriene B4], for which the Ki is 3.8 nM in assay [1] and 12.9 nM in assay [4]. Also, the Kd in assay [2] came to 8.2 nM; in assay [5], 6.6 nM. Besides, the IC50 in assay [3] is 2.4 nM.

For the origin of these results see paper PMC5668910 (Biochemistry and Biophysics Reports, 2015).
